Test results: BigSolDB 2.1

CC(C)COc1cccc(B(O)O)c1
Conditions | solubility (mole fraction)
in 3-pentanone, 303.65 K | 0.191
in 3-pentanone, 307.15 K | 0.204
in 3-pentanone, 314.15 K | 0.233
in 3-pentanone, 318.75 K | 0.258
in 3-pentanone, 335.65 K | 0.289
in 3-pentanone, 339.15 K | 0.329
in 3-pentanone, 343.15 K | 0.354
in 3-pentanone, 348.15 K | 0.396
in 3-pentanone, 351.15 K | 0.443
in 3-pentanone, 353.65 K | 0.488
in chloroform, 297.15 K | 0.018
in chloroform, 302.65 K | 0.0229
in chloroform, 306.65 K | 0.0278
in chloroform, 310.25 K | 0.0327
in chloroform, 313.95 K | 0.0408
in chloroform, 318.35 K | 0.0507
in chloroform, 323.05 K | 0.067
in chloroform, 328.55 K | 0.0899
in chloroform, 331.75 K | 0.131
in chloroform, 333.25 K | 0.19
in dipropyl ether, 298.65 K | 0.103
in dipropyl ether, 302.95 K | 0.116
in dipropyl ether, 305.15 K | 0.126
in dipropyl ether, 308.45 K | 0.137
in dipropyl ether, 312.15 K | 0.155
in dipropyl ether, 314.65 K | 0.172
in dipropyl ether, 319.75 K | 0.198
in dipropyl ether, 323.45 K | 0.232
in dipropyl ether, 329.95 K | 0.275
in dipropyl ether, 333.95 K | 0.34
in methylcyclohexane, 305.95 K | 0.0033
in methylcyclohexane, 308.45 K | 0.0049
in methylcyclohexane, 309.95 K | 0.0065
in methylcyclohexane, 315.75 K | 0.0082
in methylcyclohexane, 318.65 K | 0.0147
in methylcyclohexane, 322.65 K | 0.0343
in methylcyclohexane, 325.25 K | 0.0556
in methylcyclohexane, 327.05 K | 0.0817
in methylcyclohexane, 329.65 K | 0.132
in methylcyclohexane, 331.75 K | 0.154

CC(C)COc1ccc(B(O)O)cc1
Conditions | solubility (mole fraction)
in 3-pentanone, 294.65 K | 0.114
in 3-pentanone, 298.65 K | 0.128
in 3-pentanone, 303.75 K | 0.146
in 3-pentanone, 307.25 K | 0.172
in 3-pentanone, 309.35 K | 0.187
in 3-pentanone, 313.65 K | 0.205
in 3-pentanone, 317.65 K | 0.232
in 3-pentanone, 325.55 K | 0.265
in 3-pentanone, 331.35 K | 0.31
in 3-pentanone, 334.65 K | 0.335
in 3-pentanone, 339.65 K | 0.367
in 3-pentanone, 349.65 K | 0.411
in acetone, 294.45 K | 0.127
in acetone, 296.85 K | 0.132
in acetone, 299.75 K | 0.139
in acetone, 304.75 K | 0.149
in acetone, 309.45 K | 0.16
in acetone, 312.25 K | 0.171
in acetone, 318.75 K | 0.19
in acetone, 322.55 K | 0.204
in acetone, 325.35 K | 0.218
in chloroform, 296.25 K | 0.0212
in chloroform, 299.95 K | 0.0253
in chloroform, 303.65 K | 0.0304
in chloroform, 308.65 K | 0.0367
in chloroform, 309.65 K | 0.0415
in chloroform, 310.85 K | 0.0471
in chloroform, 312.65 K | 0.0555
in chloroform, 316.35 K | 0.0668
in chloroform, 319.65 K | 0.0785
in chloroform, 322.35 K | 0.0936
in chloroform, 328.75 K | 0.115
in chloroform, 334.25 K | 0.146
in chloroform, 338.65 K | 0.202
in chloroform, 338.75 K | 0.183
in chloroform, 343.15 K | 0.254
in chloroform, 346.65 K | 0.279
in chloroform, 352.65 K | 0.324
in chloroform, 353.85 K | 0.335
in dipropyl ether, 296.65 K | 0.0352
in dipropyl ether, 303.15 K | 0.0416
in dipropyl ether, 308.15 K | 0.0497
in dipropyl ether, 308.45 K | 0.0587
in dipropyl ether, 312.65 K | 0.0705
in dipropyl ether, 315.65 K | 0.082
in dipropyl ether, 320.15 K | 0.0995
in dipropyl ether, 325.55 K | 0.128
in dipropyl ether, 330.05 K | 0.165
in dipropyl ether, 333.15 K | 0.196
in dipropyl ether, 336.65 K | 0.229
in dipropyl ether, 339.45 K | 0.261
in dipropyl ether, 344.15 K | 0.314
in dipropyl ether, 348.65 K | 0.345
in methylcyclohexane, 318.55 K | 0.0096
in methylcyclohexane, 323.65 K | 0.0191
in methylcyclohexane, 328.45 K | 0.03
in methylcyclohexane, 334.75 K | 0.0514
in methylcyclohexane, 343.55 K | 0.118
in methylcyclohexane, 344.65 K | 0.204
in methylcyclohexane, 345.55 K | 0.266
in methylcyclohexane, 350.95 K | 0.322

CC(C)COc1ccccc1B(O)O
Conditions | solubility (mole fraction)
in 3-pentanone, 295.65 K | 0.301
in 3-pentanone, 296.55 K | 0.288
in 3-pentanone, 297.65 K | 0.304
in 3-pentanone, 298.55 K | 0.324
in 3-pentanone, 300.65 K | 0.306
in 3-pentanone, 300.85 K | 0.322
in 3-pentanone, 302.55 K | 0.322
in 3-pentanone, 303.05 K | 0.338
in 3-pentanone, 305.35 K | 0.356
in 3-pentanone, 306.05 K | 0.342
in 3-pentanone, 308.35 K | 0.362
in 3-pentanone, 309.05 K | 0.378
in 3-pentanone, 312.05 K | 0.376
in 3-pentanone, 312.25 K | 0.396
in 3-pentanone, 313.85 K | 0.426
in 3-pentanone, 318.15 K | 0.407
in 3-pentanone, 318.85 K | 0.444
in 3-pentanone, 319.15 K | 0.478
in 3-pentanone, 319.55 K | 0.455
in 3-pentanone, 322.55 K | 0.482
in 3-pentanone, 324.85 K | 0.503
in 3-pentanone, 325.55 K | 0.526
in 3-pentanone, 328.85 K | 0.547
in 3-pentanone, 331.25 K | 0.609
in 3-pentanone, 337.25 K | 0.67
in 3-pentanone, 345.35 K | 0.766
in acetone, 293.65 K | 0.281
in acetone, 300.35 K | 0.314
in acetone, 303.65 K | 0.339
in acetone, 309.35 K | 0.372
in acetone, 315.65 K | 0.411
in acetone, 320.75 K | 0.467
in acetone, 327.35 K | 0.533
in acetone, 333.95 K | 0.611
in acetone, 337.75 K | 0.639
in acetone, 341.35 K | 0.695
in acetone, 344.45 K | 0.737
in acetone, 347.75 K | 0.8
in acetone, 350.55 K | 0.823
in acetone, 353.65 K | 0.872
in acetone, 355.75 K | 0.901
in chloroform, 295.15 K | 0.277
in chloroform, 299.15 K | 0.307
in chloroform, 304.45 K | 0.338
in chloroform, 308.15 K | 0.361
in chloroform, 313.15 K | 0.402
in chloroform, 317.65 K | 0.432
in chloroform, 320.65 K | 0.465
in chloroform, 325.75 K | 0.514
in chloroform, 328.65 K | 0.547
in chloroform, 335.05 K | 0.618
in chloroform, 336.15 K | 0.637
in chloroform, 341.15 K | 0.7
in chloroform, 344.75 K | 0.715
in chloroform, 348.45 K | 0.774
in chloroform, 350.25 K | 0.822
in chloroform, 352.15 K | 0.866
in chloroform, 355.15 K | 0.895
in dipropyl ether, 294.15 K | 0.157
in dipropyl ether, 300.35 K | 0.185
in dipropyl ether, 304.35 K | 0.209
in dipropyl ether, 311.05 K | 0.259
in dipropyl ether, 316.45 K | 0.305
in dipropyl ether, 320.15 K | 0.345
in dipropyl ether, 325.05 K | 0.405
in dipropyl ether, 329.15 K | 0.446
in dipropyl ether, 330.15 K | 0.463
in dipropyl ether, 332.15 K | 0.499
in dipropyl ether, 335.05 K | 0.532
in dipropyl ether, 338.65 K | 0.606
in dipropyl ether, 340.75 K | 0.641
in dipropyl ether, 345.65 K | 0.73
in dipropyl ether, 348.75 K | 0.764
in dipropyl ether, 351.65 K | 0.813
in dipropyl ether, 353.05 K | 0.857
in methylcyclohexane, 300.05 K | 0.0138
in methylcyclohexane, 305.15 K | 0.0169
in methylcyclohexane, 305.85 K | 0.0208
in methylcyclohexane, 309.15 K | 0.0262
in methylcyclohexane, 312.25 K | 0.0333
in methylcyclohexane, 315.55 K | 0.046
in methylcyclohexane, 318.15 K | 0.0589
in methylcyclohexane, 321.95 K | 0.0885
in methylcyclohexane, 323.35 K | 0.103
in methylcyclohexane, 324.35 K | 0.118
in methylcyclohexane, 325.95 K | 0.139
in methylcyclohexane, 327.05 K | 0.163
in methylcyclohexane, 329.05 K | 0.198
in methylcyclohexane, 331.25 K | 0.21
in methylcyclohexane, 331.85 K | 0.236
in methylcyclohexane, 332.95 K | 0.253
in methylcyclohexane, 334.95 K | 0.328
in methylcyclohexane, 336.05 K | 0.354
in methylcyclohexane, 336.95 K | 0.371
in methylcyclohexane, 340.05 K | 0.479
in methylcyclohexane, 343.75 K | 0.567
in methylcyclohexane, 344.45 K | 0.628
in methylcyclohexane, 349.15 K | 0.731
